Two compounds from patent US20230226198A1, “Artemisinin Derivatives” (DA ZEN THERANOSTICS, INC., priority 2019, published 2023) can be followed below.

By IC50 is commonly meant the point on the concentration scale where inhibition reaches its midpoint.

What all share (type): cell-based
One assay has as its system BxPC3 cells. Briefly: MTT cell viability / IC50 assay, BxPC3. As to conditions: Homo sapiens, BXPC-3; BxPC3, 48 h. The procedure:
(§1) Cell culture: In the following examples, unless otherwise specified, all cell lines are purchased from American Type Culture Collection and cultured in American Type Culture Collection (ATCC)-recommended media, with fetal bovine serum (FBS) to a final concentration of 10% and 1× penicillin/streptomycin at 37° C. with 5% CO2 in a cell culture incubator, unless otherwise specified. Unless otherwise specified, culture is 2D. Where culture is 3D, low attachment plates are used, with the same media. C4-2B (ATCC® CRL-3315™, human prostate cancer cells of epithelial morphology) parental cell line and drug-resistant cells derived therefrom) are cultured in RPMI-1640 with 10% FBS. MDVR cells (an Enzalutamide-resistant variety of C4-2B prostate cancer cells formed as described below) are cultured as indicated for the parental C4-2B cells. Caki-1 cells (human clear cell renal cell carcinoma cells) are cultured in ATCC-formulated McCoy's 5a Medium Modified (ATCC Catalog No. 30-2007) with 10% FBS. […]
(§2) Each of the cell lines is treated either with a THAD (e.g. DZ-DHA-ether, MI-148-bis-DHA), or for comparison, with the DHA mono-ester “DZ-DHA”; alternatively/additionally, DZ1 and/or unconjugated DHA may serve as comparants. […] The absorbance density of the supernatant is read on a 96-well microplate reader at wavelength 595 nm. […]

Another assay concerns H446 cells. As to the kind of experiment: MTT cell viability / IC50 assay, H446. As to conditions: Homo sapiens, NCI-H446, 48 h. The procedure:
as §1, §2

The next assay has as its system 22Rv1 cells. As to the kind of experiment: MTT cell viability / IC50 assay, 22Rv1. As to conditions: Homo sapiens, 22Rv1, 48 h. As to the method: as §1, §2

For `C[C@@H]1CC[C@H]2[C@@H](C)C(OC(=O)CCCCCN3/C(=C/C=C4\CCCC(/C=C/C5=[N+](CCCCS(=O)(=O)[O-])c6ccccc6C5(C)C)=C4Cl)C(C)(C)c4ccccc43)O[C@@H]3OC4(C)CC[C@@H]1[C@]32OO4` (stereo in doubt) [DZ3a], the IC50 amounted to 9.8 µM in the assay on BxPC3 cells, 12.6 µM in the assay on H446 cells and 0.9 µM in the assay with 22Rv1 cells.

For the compound `C[C@H]1[C@@H](O)O[C@@H]2O[C@@]3(C)CC[C@H]4[C@H](C)CC[C@@H]1[C@@]24OO3` [DHA, dihydroartemisinin], the IC50 with BxPC3 cells came to 50.7 µM; in the assay with H446 cells it was 287 µM; in the assay on 22Rv1 cells, 9.4 µM.
